Results reported in patent publication US9376429B2, “Sodium channel blockers, preparation method thereof and use thereof” (Daewoong Pharmaceutical Co., Ltd., priority 2012, dated 2016).

Target: T1, sodium ion channel (Nav1.7) (Homo sapiens, UniProt Q15858)
T1 construct: host or cells: HEK293
T1 sequence (Q15858 whole entry): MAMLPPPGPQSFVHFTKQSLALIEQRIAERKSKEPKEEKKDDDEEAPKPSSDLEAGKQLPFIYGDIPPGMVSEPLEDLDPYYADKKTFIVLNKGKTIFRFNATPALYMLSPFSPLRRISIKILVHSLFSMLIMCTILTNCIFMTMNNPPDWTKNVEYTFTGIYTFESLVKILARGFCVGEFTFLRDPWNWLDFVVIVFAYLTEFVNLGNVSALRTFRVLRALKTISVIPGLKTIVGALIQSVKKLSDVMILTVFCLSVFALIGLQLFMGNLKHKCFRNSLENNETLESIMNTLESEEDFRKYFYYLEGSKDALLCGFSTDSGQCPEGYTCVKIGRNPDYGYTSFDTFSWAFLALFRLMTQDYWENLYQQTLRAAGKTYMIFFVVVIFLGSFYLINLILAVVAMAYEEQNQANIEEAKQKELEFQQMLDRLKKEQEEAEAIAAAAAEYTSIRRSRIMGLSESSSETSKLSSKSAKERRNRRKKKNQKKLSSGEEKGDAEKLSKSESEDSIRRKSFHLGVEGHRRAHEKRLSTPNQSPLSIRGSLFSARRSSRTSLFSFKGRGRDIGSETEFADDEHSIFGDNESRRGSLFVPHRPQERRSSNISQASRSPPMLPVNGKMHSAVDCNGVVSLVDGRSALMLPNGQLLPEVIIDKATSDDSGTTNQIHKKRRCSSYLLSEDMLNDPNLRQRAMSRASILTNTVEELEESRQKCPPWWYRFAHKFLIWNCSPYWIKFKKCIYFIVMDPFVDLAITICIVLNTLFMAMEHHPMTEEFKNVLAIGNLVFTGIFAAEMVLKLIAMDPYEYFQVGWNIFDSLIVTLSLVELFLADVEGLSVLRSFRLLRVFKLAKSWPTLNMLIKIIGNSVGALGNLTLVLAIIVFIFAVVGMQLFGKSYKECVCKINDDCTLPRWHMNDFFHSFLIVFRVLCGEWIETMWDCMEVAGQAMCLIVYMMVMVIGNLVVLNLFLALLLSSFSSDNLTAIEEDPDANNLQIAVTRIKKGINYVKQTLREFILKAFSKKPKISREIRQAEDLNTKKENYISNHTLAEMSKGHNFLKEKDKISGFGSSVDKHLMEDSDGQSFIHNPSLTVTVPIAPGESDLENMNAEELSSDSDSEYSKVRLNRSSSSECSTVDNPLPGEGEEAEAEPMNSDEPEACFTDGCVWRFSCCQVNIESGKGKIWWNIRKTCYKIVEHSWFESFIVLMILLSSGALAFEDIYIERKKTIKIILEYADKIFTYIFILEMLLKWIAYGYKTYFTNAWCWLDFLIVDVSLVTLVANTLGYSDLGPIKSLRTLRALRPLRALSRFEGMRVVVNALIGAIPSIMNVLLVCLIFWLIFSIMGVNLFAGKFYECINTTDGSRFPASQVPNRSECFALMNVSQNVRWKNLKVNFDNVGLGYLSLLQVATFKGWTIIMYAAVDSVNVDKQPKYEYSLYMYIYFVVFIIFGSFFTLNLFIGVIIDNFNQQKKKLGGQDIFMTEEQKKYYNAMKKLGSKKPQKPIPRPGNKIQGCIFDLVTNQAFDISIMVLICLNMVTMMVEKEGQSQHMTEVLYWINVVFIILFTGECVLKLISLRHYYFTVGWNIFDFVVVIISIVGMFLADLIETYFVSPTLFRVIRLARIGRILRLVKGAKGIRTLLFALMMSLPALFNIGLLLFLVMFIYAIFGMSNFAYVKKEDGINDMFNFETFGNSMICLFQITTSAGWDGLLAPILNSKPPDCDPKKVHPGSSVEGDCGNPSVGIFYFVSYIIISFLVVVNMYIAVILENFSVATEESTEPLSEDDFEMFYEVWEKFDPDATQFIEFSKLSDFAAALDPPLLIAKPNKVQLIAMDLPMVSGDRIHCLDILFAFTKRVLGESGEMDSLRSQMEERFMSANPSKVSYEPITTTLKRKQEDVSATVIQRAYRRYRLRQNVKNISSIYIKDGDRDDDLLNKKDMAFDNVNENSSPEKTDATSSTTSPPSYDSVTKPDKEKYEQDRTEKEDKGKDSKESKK
Assay: Blocking effect against sodium ion channel (Nav1.7), IonFlux16 auto patch clamp, hNav1.7 HEK293 cells
Type: cell-based
Conditions: peak current after 50 seconds treatment, eight concentrations
Outline: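 HEK293 cells stably expressing human Nav1.7 were recorded by IonFlux16 automated patch clamp in extracellular solution (pH 7.45, final DMSO ≤0.3%). Peak current was measured after 50 s exposure to each of eight compound concentrations and expressed as percent inhibition relative to pre-compound current.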
With `N#Cc1cc(S(=O)(=O)Nc2nccs2)ccc1Oc1ccc(-c2ccccc2F)nc1-c1ccoc1` [Example 108, 3-cyano-4-((6-(2-fluorophenyl)-2-(furan-3-yl)pyridin-3-yl)oxy)-N-(thiazol-2-yl)benzenesulfonamide] the IC50 was 51 to 100 nM. For `N#Cc1cc(S(=O)(=O)Nc2nccs2)ccc1Oc1ccc(-c2ccsc2)nc1-c1ccoc1` [Example 113, 3-cyano-4-((2-(furan-3-yl)-6-(thiophen-3-yl)pyridin-3-yl)oxy)-N-(thiazol-2-yl)benzenesulfonamide], the IC50 was greater than 100 nM. Compound `O=S(=O)(Nc1cscn1)c1cc(Cl)c(Oc2cnc(-c3cc(Cl)ccc3F)cc2-c2cccnc2)cc1F` [Example 81, 5-chloro-4-((6′-(5-chloro-2-fluorophenyl)-[3,4′-bipyridin]-3′-yl)oxy)-2-fluoro-N-(thiazol-4-yl)benzenesulfonamide] has an IC50 greater than 100 nM. With `Cn1nccc1-c1cc(-c2cccc(F)c2)ncc1Oc1ccc(S(=O)(=O)Nc2nccs2)cc1C#N` [Example 26, 3-cyano-4-((6-(3-fluorophenyl)-4-(1-methyl-1H-pyrazol-5-yl)pyridin-3-yl)oxy)-N-(thiazol-2-yl)benzenesulfonamide] the IC50 was 51 to 100 nM. `N#Cc1cc(S(=O)(=O)Nc2cscn2)ccc1Oc1cnc(-c2ccc(C(F)(F)F)c(F)c2)cc1-c1cccnc1` [Example 86, 3-cyano-4-((6′-(3-fluoro-4-(trifluoromethyl)phenyl)-[3,4′-bipyridin]-3′-yl)oxy)-N-(thiazol-4-yl)benzenesulfonamide] showed an IC50 greater than 100 nM. Compound `Cn1nccc1-c1nc(-c2ccccc2F)ccc1Oc1cc(F)c(S(=O)(=O)Nc2cscn2)cc1Cl` [Example 136, 5-chloro-2-fluoro-4-((6-(2-fluorophenyl)-2-(1-methyl-1H-pyrazol-5-yl)pyridin-3-yl)oxy)-N-(thiazol-4-yl)benzenesulfonamide] has an IC50 greater than 100 nM. Compound `N#Cc1cc(S(=O)(=O)Nc2nccs2)ccc1Oc1cnc(-c2cccc(F)c2)cc1-c1ccoc1` [Example 5, 3-cyano-4-(6-(3-fluorophenyl)-4-(furan-3-yl)pyridin-3-yloxy)-N-(thiazol-2-yl)benzenesulfonamide] has an IC50 of less than 50 nM. Compound `Cn1cc(-c2cc(-c3ccoc3)c(Oc3ccc(S(=O)(=O)Nc4nccs4)cc3C#N)cn2)cn1` [Example 46, 3-cyano-4-((4-(furan-3-yl)-6-(1-methyl-1H-pyrazol-4-yl)pyridin-3-yl)oxy)-N-(thiazol-2-yl)benzenesulfonamide] has an IC50 greater than 100 nM. With `O=S(=O)(Nc1nccs1)c1ccc(Oc2cnc(-c3ccc(F)nc3)cc2-c2ccoc2)c(F)c1` [Example 48, 3-fluoro-4-((6′-fluoro-4-(furan-3-yl)-[2,3′-bipyridin]-5-yl)oxy)-N-(thiazol-2-yl)benzenesulfonamide] the IC50 was greater than 100 nM. For `Cn1cc(-c2cc(-c3cccnc3F)ncc2Oc2cc(F)c(S(=O)(=O)Nc3cscn3)cc2Cl)cn1` [Example 69, 5-chloro-2-fluoro-4-((2′-fluoro-4-(1-methyl-1H-pyrazol-4-yl)-[2,3′-bipyridin]-5-yl)oxy)-N-(thiazol-4-yl)benzenesulfonamide 2,2,2-trifluoroacetate], the IC50 was greater than 100 nM. With `N#Cc1cc(S(=O)(=O)Nc2cscn2)ccc1Oc1cnc(-c2ccc(F)c(F)c2)cc1-c1cncnc1` [Example 93, 3-cyano-4-((6-(3,4-difluorophenyl)-4-(pyrimidin-5-yl)pyridin-3-yl)oxy)-N-(thiazol-4-yl)benzenesulfonamide] the IC50 was greater than 100 nM.

Tested on: not given
Assay: not given
Conditions: neuropathic pain patients; cited from earlier work
For `NCC1(CC(=O)O)CCCCC1` [gabapentin], the “effective for share of the patients” value is listed as 60%.
